Consider five molecules from ChEMBL document CHEMBL1133057, “Synthesis and in vitro antibacterial activity of 3-[N-methyl-N-(3-methyl-1,3-thiazolium-2-yl)aminolmethyl cephalosporin derivatives” (2000).

The subject of assay [1] is Staphylococcus aureus. As to the kind of experiment: Compound was tested in vitro for its minimum inhibitory concentration by serial 2-fold agar dilution Muller Hinton method against Staphylococcus aureus 285. Type of assay: functional. Background: In agar dilution, organisms are placed on agar that contains the substance at set levels.
The next assay relates to Salmonella typhimurium. As to the kind of experiment: Compound was tested in vitro for its minimum inhibitory concentration by serial 2-fold agar dilution Muller Hinton method against Salmonella Typhimurium. It counts as functional, Salmonella enterica subsp. enterica serovar Typhimurium. Particulars: Salmonella enterica.
A further assay concerns Klebsiella aerogenes. As to the kind of experiment: Compound was tested in vitro for its minimum inhibitory concentration by serial 2-fold agar dilution Muller Hinton method against Klebsiella aerogenes 1522 E. It counts as functional.
In assay [2] the test system is Streptococcus pyogenes. As to the kind of experiment: Compound was tested in vitro for its minimum inhibitory concentration by serial 2-fold agar dilution Muller Hinton method against Streptococcus pyogenes A 308. It counts as functional.
Assay [3] relates to Enterobacter cloacae. In words: Compound was tested in vitro for its minimum inhibitory concentration by serial 2-fold agar dilution Muller Hinton method against Enterobacter cloacae P99. Type of assay: functional.
In assay [4] the test system is Escherichia coli. As to the kind of experiment: Compound was tested in vitro for its minimum inhibitory concentration by serial 2-fold agar dilution Muller Hinton method against Escherichia coli O 55. Type of assay: functional.
Assay [5] has as its system Streptococcus pyogenes. In words: Compound was tested in vitro for its minimum inhibitory concentration by serial 2-fold agar dilution Muller Hinton method against Streptococcus pyogenes A77. Type of assay: functional.
For assay [6], the system named is Pseudomonas aeruginosa. As to the kind of experiment: Compound was tested in vitro for its minimum inhibitory concentration by serial 2-fold agar dilution Muller Hinton method against Pseudomonas aeruginosa 1771. It counts as functional.
Assay [7] has as its system Pseudomonas aeruginosa. As to the kind of experiment: Compound was tested in vitro for its minimum inhibitory concentration by serial 2-fold agar dilution Muller Hinton method against Pseudomonas aeruginosa 9027. It counts as functional.
For assay [8], the system named is Escherichia coli. In words: Compound was tested in vitro for its minimum inhibitory concentration by serial 2-fold agar dilution Muller Hinton method against Escherichia coli TEM. It counts as functional.
For the next assay, the system named is Klebsiella oxytoca. In words: Compound was tested in vitro for its minimum inhibitory concentration by serial 2-fold agar dilution Muller Hinton method against Klebsiella oxytoca 1082 E. It counts as functional.
Assay [9] deals with Escherichia coli. As to the kind of experiment: Compound was tested in vitro for its minimum inhibitory concentration by serial 2-fold agar dilution Muller Hinton method against Escherichia coli DC 0. It counts as functional.
In assay [10] the test system is Escherichia coli. As to the kind of experiment: Compound was tested in vitro for its minimum inhibitory concentration by serial 2-fold agar dilution Muller Hinton method against Escherichia coli 1507E. It counts as functional.
Assay [11] relates to Escherichia coli. As to the kind of experiment: Compound was tested in vitro for its minimum inhibitory concentration by serial 2-fold agar dilution Muller Hinton method against Escherichia coli DC 2. Type of assay: functional.
Assay [12] relates to Staphylococcus aureus. In words: Compound was tested in vitro for its minimum inhibitory concentration by serial 2-fold agar dilution Muller Hinton method against Staphylococcus aureus 503. Type of assay: functional.
Assay [13] relates to Staphylococcus aureus. As to the kind of experiment: Compound was tested in vitro for its minimum inhibitory concentration by serial 2-fold agar dilution Muller Hinton method against Staphylococcus aureus SG511. Type of assay: functional.
In assay [14] the test system is Enterobacter cloacae. In words: Compound was tested in vitro for its minimum inhibitory concentration by serial 2-fold agar dilution Muller Hinton method against Enterobacter cloacae 1321. It counts as functional.
The test system of assay [15] is Pseudomonas aeruginosa. In words: Compound was tested in vitro for its minimum inhibitory concentration by serial 2-fold agar dilution Muller Hinton method against Pseudomonas aeruginosa 1771 M. It counts as functional.
In assay [16] the test system is Streptococcus pyogenes. As to the kind of experiment: Compound was tested in vitro for its minimum inhibitory concentration by serial 2-fold agar dilution Muller Hinton method against Streptococcus pyogenes 8b. Type of assay: functional.
Assay [17] concerns Pseudomonas aeruginosa. As to the kind of experiment: Compound was tested in vitro for its minimum inhibitory concentration by serial 2-fold agar dilution Muller Hinton method against Pseudomonas aeruginosa 1592 E. Type of assay: functional.

Converted amounts (≈) assume the structure as drawn. A value given as a limit tells only on which side of the number the result lay.

One may read the MIC as the lowest concentration found to suppress growth. Read a low MIC as a more susceptible organism. With `CO/N=C(\C(=O)NC1C(=O)N2C(C(=O)[O-])=C(CN(C)c3scc[n+]3C)CSC12)c1csc(N)n1` (stereo not given), the MIC in the assay with Staphylococcus aureus [1] was found to be 3.12 µg/mL (≈ 5.97 µM); in the assay on Salmonella typhimurium, 0.098 µg/mL (≈ 0.187 µM); against Klebsiella aerogenes it was 0.098 µg/mL (≈ 0.187 µM); against Streptococcus pyogenes [2] it was 0.007 µg/mL (≈ 0.0134 µM); in the assay with Enterobacter cloacae [3], 50 µg/mL (≈ 95.5 µM); in the assay on Escherichia coli [4], 0.025 µg/mL (≈ 0.0477 µM). Also, the MIC against Streptococcus pyogenes [5] came out at 0.007 µg/mL (≈ 0.0134 µM); against Pseudomonas aeruginosa [6] it was 25 µg/mL (≈ 47.7 µM); in the assay on Pseudomonas aeruginosa [7] it was 50 µg/mL (≈ 95.5 µM); in the assay on Escherichia coli [8] it was 0.098 µg/mL (≈ 0.187 µM); against Klebsiella oxytoca it was 25 µg/mL (≈ 47.7 µM); in the assay with Escherichia coli [9] it was 0.098 µg/mL (≈ 0.187 µM). Besides, the minimal inhibitory concentration (MIC) against Escherichia coli [10] is 0.098 µg/mL (≈ 0.187 µM); against Escherichia coli [11] it was 0.098 µg/mL (≈ 0.187 µM); against Staphylococcus aureus [12], 0.391 µg/mL (≈ 0.747 µM); with Staphylococcus aureus [13], 1.56 µg/mL (≈ 2.98 µM); against Enterobacter cloacae [14], 0.049 µg/mL (≈ 0.0936 µM); in the assay on Pseudomonas aeruginosa [15] it was 1.56 µg/mL (≈ 2.98 µM). In addition, the MIC against Streptococcus pyogenes [16] was more than 100 µg/mL; in the assay with Pseudomonas aeruginosa [17], 50 µg/mL (≈ 95.5 µM).
Regarding `CO/N=C(\C(=O)NC1C(=O)N2C(C(=O)[O-])=C(CN(C)c3sc4c([n+]3C)CCCC4)CSC12)c1csc(N)n1` (stereo not given), the MIC against Staphylococcus aureus [1] is 0.781 µg/mL (≈ 1.35 µM); in the assay with Salmonella typhimurium, 0.049 µg/mL (≈ 0.0848 µM); against Klebsiella aerogenes it was 0.025 µg/mL (≈ 0.0433 µM); against Streptococcus pyogenes [2], 0.007 µg/mL (≈ 0.0121 µM); against Enterobacter cloacae [3], 6.25 µg/mL (≈ 10.8 µM); in the assay with Escherichia coli [4], 0.025 µg/mL (≈ 0.0433 µM). Further, the minimum inhibitory concentration (MIC) against Streptococcus pyogenes [5] turned out to be 0.007 µg/mL (≈ 0.0121 µM); in the assay on Pseudomonas aeruginosa [6] it was 6.25 µg/mL (≈ 10.8 µM); in the assay on Pseudomonas aeruginosa [7], 50 µg/mL (≈ 86.5 µM); against Escherichia coli [8], 0.049 µg/mL (≈ 0.0848 µM); against Klebsiella oxytoca, 3.12 µg/mL (≈ 5.41 µM); with Escherichia coli [9] it was 0.049 µg/mL (≈ 0.0848 µM). The MIC was found to be 0.049 µg/mL (≈ 0.0848 µM) in the assay on Escherichia coli [10]; 0.025 µg/mL (≈ 0.0433 µM) in the assay with Escherichia coli [11]; 0.195 µg/mL (≈ 0.338 µM) against Staphylococcus aureus [12]; 0.391 µg/mL (≈ 0.677 µM) against Staphylococcus aureus [13]; 0.013 µg/mL (≈ 0.0225 µM) with Enterobacter cloacae [14]; 0.781 µg/mL (≈ 1.35 µM) against Pseudomonas aeruginosa [15]. The MIC against Streptococcus pyogenes [16] was found to be 12.5 µg/mL (≈ 21.6 µM); against Pseudomonas aeruginosa [17], 25 µg/mL (≈ 43.3 µM).
Turning to `CCO/N=C(\C(=O)NC1C(=O)N2C(C(=O)[O-])=C(CN(C)c3sc(C(=O)OCC)c(C)[n+]3C)CSC12)c1csc(N)n1` (stereo not given), the MIC against Staphylococcus aureus [1] came out at 1.56 µg/mL (≈ 2.51 µM); in the assay on Salmonella typhimurium, 0.049 µg/mL (≈ 0.0786 µM); in the assay on Klebsiella aerogenes, 0.049 µg/mL (≈ 0.0786 µM); with Streptococcus pyogenes [2], 0.007 µg/mL (≈ 0.0112 µM); against Enterobacter cloacae [3] it was 3.12 µg/mL (≈ 5.01 µM); in the assay with Escherichia coli [4], 0.049 µg/mL (≈ 0.0786 µM). For the same molecule, the MIC with Streptococcus pyogenes [5] is 0.004 µg/mL (≈ 0.00641 µM); with Pseudomonas aeruginosa [6] it was 25 µg/mL (≈ 40.1 µM); against Pseudomonas aeruginosa [7] it was 100 µg/mL (≈ 160 µM); in the assay on Escherichia coli [8] it was 0.195 µg/mL (≈ 0.313 µM); against Klebsiella oxytoca it was 6.25 µg/mL (≈ 10 µM); against Escherichia coli [9] it was 0.098 µg/mL (≈ 0.157 µM). In addition, the MIC in the assay with Escherichia coli [10] was 0.098 µg/mL (≈ 0.157 µM); against Escherichia coli [11], 0.049 µg/mL (≈ 0.0786 µM); in the assay with Staphylococcus aureus [12], 0.781 µg/mL (≈ 1.25 µM); in the assay on Staphylococcus aureus [13] it was 1.56 µg/mL (≈ 2.51 µM); against Enterobacter cloacae [14], 0.025 µg/mL (≈ 0.0401 µM); in the assay on Pseudomonas aeruginosa [15], 1.56 µg/mL (≈ 2.51 µM). Further, the MIC was 25 µg/mL (≈ 40.1 µM) against Streptococcus pyogenes [16] and 50 µg/mL (≈ 80.2 µM) against Pseudomonas aeruginosa [17].
As to `C=CCO/N=C(\C(=O)NC1C(=O)N2C(C(=O)[O-])=C(CN(C)c3sc4c([n+]3C)CCCC4)CSC12)c1csc(N)n1` (stereo not given), the MIC worked out at 0.781 µg/mL (≈ 1.29 µM) with Staphylococcus aureus [1]; 0.195 µg/mL (≈ 0.323 µM) in the assay on Salmonella typhimurium; 0.195 µg/mL (≈ 0.323 µM) against Klebsiella aerogenes; 0.004 µg/mL (≈ 0.00663 µM) against Streptococcus pyogenes [2]; 12.5 µg/mL (≈ 20.7 µM) against Enterobacter cloacae [3]; 0.049 µg/mL (≈ 0.0812 µM) against Escherichia coli [4]. Further, the MIC is 0.004 µg/mL (≈ 0.00663 µM) in the assay with Streptococcus pyogenes [5]; 6.25 µg/mL (≈ 10.4 µM) in the assay with Pseudomonas aeruginosa [6]; 50 µg/mL (≈ 82.8 µM) in the assay with Pseudomonas aeruginosa [7]; 0.391 µg/mL (≈ 0.648 µM) in the assay with Escherichia coli [8]; 6.25 µg/mL (≈ 10.4 µM) in the assay on Klebsiella oxytoca; 0.391 µg/mL (≈ 0.648 µM) against Escherichia coli [9]. Moreover, the MIC in the assay with Escherichia coli [10] was found to be 0.391 µg/mL (≈ 0.648 µM); in the assay on Escherichia coli [11], 0.025 µg/mL (≈ 0.0414 µM); in the assay on Staphylococcus aureus [12] it was 0.195 µg/mL (≈ 0.323 µM); with Staphylococcus aureus [13] it was 0.391 µg/mL (≈ 0.648 µM); against Enterobacter cloacae [14] it was 0.049 µg/mL (≈ 0.0812 µM); against Pseudomonas aeruginosa [15], 0.781 µg/mL (≈ 1.29 µM). Further, the minimal inhibitory concentration (MIC) against Streptococcus pyogenes [16] and against Pseudomonas aeruginosa [17] was 50 µg/mL (≈ 82.8 µM) in each case.
`CCO/N=C(\C(=O)NC1C(=O)N2C(C(=O)[O-])=C(CN(C)c3scc(C)[n+]3C)CSC12)c1csc(N)n1` (stereo not given): the MIC against Staphylococcus aureus [1] was found to be 1.56 µg/mL (≈ 2.83 µM); with Salmonella typhimurium, 0.049 µg/mL (≈ 0.0888 µM); with Klebsiella aerogenes it was 0.049 µg/mL (≈ 0.0888 µM); in the assay with Streptococcus pyogenes [2], 0.013 µg/mL (≈ 0.0236 µM); against Enterobacter cloacae [3] it was 25 µg/mL (≈ 45.3 µM); against Escherichia coli [4], 0.025 µg/mL (≈ 0.0453 µM). Further, the MIC against Streptococcus pyogenes [5] worked out at 0.013 µg/mL (≈ 0.0236 µM); against Pseudomonas aeruginosa [6], 3.12 µg/mL (≈ 5.66 µM); in the assay with Pseudomonas aeruginosa [7], 25 µg/mL (≈ 45.3 µM); in the assay on Escherichia coli [8], 0.098 µg/mL (≈ 0.178 µM); against Klebsiella oxytoca it was 6.25 µg/mL (≈ 11.3 µM); in the assay on Escherichia coli [9] it was 0.098 µg/mL (≈ 0.178 µM). Moreover, the MIC came to 0.098 µg/mL (≈ 0.178 µM) with Escherichia coli [10]; 0.025 µg/mL (≈ 0.0453 µM) against Escherichia coli [11]; 0.391 µg/mL (≈ 0.709 µM) in the assay on Staphylococcus aureus [12]; 0.781 µg/mL (≈ 1.42 µM) against Staphylococcus aureus [13]; 0.025 µg/mL (≈ 0.0453 µM) in the assay on Enterobacter cloacae [14]; 0.391 µg/mL (≈ 0.709 µM) against Pseudomonas aeruginosa [15]. Also, the minimal inhibitory concentration (MIC) with Streptococcus pyogenes [16] is 50 µg/mL (≈ 90.6 µM); in the assay with Pseudomonas aeruginosa [17] it was 12.5 µg/mL (≈ 22.7 µM).
